{"source": "patent US6114326A", "about": "“Use of cabergoline in the treatment of restless legs syndrome” (priority 1999, dated 2000)", "key": {"[1]": {"test_system": "restless legs syndrome patients", "test": "Polysomnography in 12-week open label pilot trial of single evening cabergoline dose in RLS", "assay_type": "in vivo", "procedure": "Cabergoline in RLS, ENS, Nice, Abstract.\nEfficacy was assessed by polysomnography and subjective ratings.\nFollowing a 2-week baseline period, all patients were treated with cabergoline in an open trial for 12 weeks. Apart from levodopa, patients had to stop taking any medication known to have positive or negative effect on RLS two weeks before baseline (i.e., other dopamine agonists, benzodiazepines, opioids or other psychotropic agents). Patients who were on levodopa therapy were allowed to either stop levodopa prior to study entry or to continue, taper or discontinue levodopa during the study. To prevent well known peripheral dopaminergic side-effects such as nausea, vomiting, vertigo and arterial hypotension domperidone (not available in the United States) was comedicated initially and also tapered if possible. […] Neurological case history, examination, electrocardiogramm, chest x-ray and polysomnography were performed to ensure that selection criteria were fulfilled. A two-night PSG (including one night of adaptation) was performed to evaluate the diagnosis and inclusion/exclusion criteria regardless if patients were on or off levodopa. After a 12-week treatment period patients were studied again for one night in the sleep laboratory. Subjective ratings were obtained at baseline, week 4, week 8 and at the endpoint after 12 weeks. In addition patients were monitored by phone calls to note any adverse events and to determine whether to increase the dosage of the study drug, to decrease levodopa and to decrease domperidone. The time schedule of phone calls was variable and the frequency mostly dependent on the presence of simultaneous levodopa therapy.\nInclusion criteria. Patients were included if they fulfilled the minimal diagnostic criteria according to the International RLS Study Group. After rating clinical symptoms at baseline, patients were referred to polysomnography without any RLS specific treatment other than levodopa. Patients were included if they had more than five PLM per hour of time-in-bed (PLM index) and a sleep efficiency index (total sleep time per hour time-in-bed) of less than 85%.\nExclusion criteria. Patients with signs of any other sleep disorder on PSG, especially sleep apnea syndrome (respiratory disturbances index >5 per hour total sleep time), were excluded. Subjects receiving neuroleptic, antidepressant or other psychotropic medications or with any severe additional illness (with special consideration to pulmonary fibrosis) or drug abuse were also excluded. Patients with established or suspected hypersensitivity to ergot derivates and patients with clinical significant change in routine laboratory studies were not included. Pregnant or lactating women or women without safe contraception were not allowed to participate in this study.\nDosing. Study medication was available in tablets containing 0.5 mg, 1 mg or 2 mg Cabergoline (Cabaseril®, Pharmacia & Upjohn, Erlangen, Germany). Medication was taken 2 hours prior to bedtime. Initial therapy consisted of one 0.5 mg tablet. […] The increased dose could be decreased again if necessary. All patients were initially comedicated with domperidone 20 mg t.i.d. which could be tapered and stopped if possible. Subjects who were pretreated with levodopa were asked to decrease levodopa simultaneously if possible.\nPolysomnographic studies. At baseline and at the study end after 12 weeks PSG recordings were performed for one night (11 p.m.-7 a.m.) to evaluate inclusion/exclusion criteria and to obtain primary and secondary efficacy parameters. Studies included monitoring of electroencephalogram (EEG) (C3-A2, C4-A1), electrooculogram, chin EMG, EMG of both anterior tibialis muscles and electrocardiogram (ECG). PSG methods used standard procedures such as Pollmacher and Schultz. At baseline respiration, oronasal airflow, respiration effort and oxygen saturation were monitored by standard methods. Sleep scoring was also done by methods. […]"}, "[2]": {"test_system": "restless legs syndrome patients", "test": "Safety / adverse events, tolerability, augmentation in 12-week open label trial", "assay_type": "in vivo", "conditions": "6 months or more after treatment, compared with L-Dopa"}}, "note": "“Also recorded” adds a separate entry of the source."}
{"smiles": "C=CCN1C[C@H](C(=O)N(CCCN(C)C)C(=O)NCC)C[C@@H]2c3cccc4[nH]cc(c34)C[C@H]21", "note": "[Cabergoline, 1((6-allylergolin-8β-yl) -carbony.)-1-(3-(dimethylamino)propyl)-3-ethylurea]", "values": [{"measurement": "increase in total sleep time", "setting": "[1]; endpoint vs. baseline", "value": "more than one"}, {"measurement": "reduction of PLM during time in bed, PLM arousals and PLM awakenings (in words)", "setting": "[1]; endpoint vs. baseline", "value": "significant reduction"}, {"measurement": "sleep efficiency (in words)", "setting": "[1]; endpoint vs. baseline", "value": "increased"}, {"measurement": "sleep latency (in words)", "setting": "[1]; endpoint vs. baseline", "value": "shortened"}, {"measurement": "total sleep time (in words)", "setting": "[1]; endpoint vs. baseline", "value": "prolonged"}, {"measurement": "total number of PLM during time in bed (No. Of PLM)", "setting": "[1]; week 12, cabergoline monotherapy (mean 2.1 mg, single evening dose), baseline 195.8 ± 109.1", "value": "26.4±40.2"}, {"measurement": "number of PLM awakenings", "setting": "[1]; week 12, cabergoline monotherapy, baseline 9.6 ± 4.9", "value": "1.0±2.0"}, {"measurement": "PLM arousal index", "setting": "[1]; week 12, cabergoline monotherapy, baseline 10.4 ± 7.8", "value": "1.0±1.7 number of PLM arousals per hou"}, {"measurement": "PLM index", "setting": "[1]; week 12, cabergoline monotherapy, baseline 27.7 ± 17.1", "value": "3.6±5.3 number of PLM per hour time in"}, {"measurement": "Sleep Latency", "setting": "[1]; week 12, cabergoline monotherapy, baseline 42.4 ± 49.1", "value": "16.3 ± 22.8", "unit": "min"}, {"measurement": "PLM arousals", "setting": "[1]; week 12, cabergoline monotherapy, baseline 51.7 ± 42.3", "value": "6.4±11.2"}, {"measurement": "Sleep efficiency", "setting": "[1]; week 12, cabergoline monotherapy, baseline 63.1 ± 10.5", "value": "79.1±12.5", "unit": "%"}, {"measurement": "Total sleep time", "setting": "[1]; week 12, cabergoline monotherapy, baseline 302.7 ± 50.7", "value": "379.4 ± 59.8", "unit": "min"}, {"measurement": "tolerance to treatment (in words)", "setting": "[2]", "value": "low tolerance; also recorded: lack of tolerance"}]}
